Experimental data from patent US12435089B2, “3-oxadiazolyl substituted pyrazolo[1,5,a]pyrimidines for ROS1, NTRK, and ALK mediated diseases” (TYK MEDICINES, INC., priority 2019, dated 2025).
Like-named read-outs stand apart in the source and are kept apart here.

Key:
[1] = test system: Ba/F3-CD74-ROS1; experiment: Inhibition of cell proliferation (CellTiter-Glo), Ba/F3-CD74-ROS1; assay type: cell-based; details: 72 hours
Experimental: (§1) The experiment of inhibiting cell proliferation by compounds was carried out in Hefei Zhongkeprecedo Biomedical Technology Co., Ltd. The Ba/F3 engineered cell line stably transfected with different kinase genes was recovered with RPMI 1640 medium (Biological Industries, Israel)+10% fetal bovine serum (Biological Industries, Israel)+1% double antibody (Penicillin Streptomycin solution, Coring, USA) and cultivated two generations. The logarithmic growth phase cell suspension was taken, and 2000 cells/well were inoculated on 96-well white cell culture plate (Corning 3917, NY, USA) with a volume of 95 μL per well. 5 μL of 20×DMSO solution of the compound to be tested was added into the culture plate containing 95 μL of cell suspension. The blank control group was added with corresponding volume of DMSO, mixed well, and incubated in a 5% CO2 incubator at 37° C. for 72 hours. CellTiter-Glo was used to detect cell viability.

[2] = test system: Ba/F3-LMNA-NTRK1; experiment: Inhibition of cell proliferation (CellTiter-Glo), Ba/F3-LMNA-NTRK1; assay type: cell-based; details: 72 hours
Experimental: as §1

[3] = test system: Ba/F3-CD74-ROS1-G2032R; experiment: Inhibition of cell proliferation (CellTiter-Glo), Ba/F3-CD74-ROS1-G2032R; assay type: cell-based; details: 72 hours;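 further: Ba/F3 cell line expressing the CD74-ROS1 fusion with G2032R mutation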
Experimental: as §1

[4] = test system: Ba/F3-LMNA-NTRK1-G595R; experiment: Inhibition of cell proliferation (CellTiter-Glo), Ba/F3-LMNA-NTRK1-G595R; assay type: cell-based; details: 72 hours
Experimental: as §1

[5] = biological target: TRKC (Homo sapiens (Human), UniProt Q16288); experiment: Radio-tagged HotSpot kinase assay, TRKC; assay type: biochemical; details: 33P-ATP, 120 min, room temperature
Chain of TRKC (Q16288 32-839): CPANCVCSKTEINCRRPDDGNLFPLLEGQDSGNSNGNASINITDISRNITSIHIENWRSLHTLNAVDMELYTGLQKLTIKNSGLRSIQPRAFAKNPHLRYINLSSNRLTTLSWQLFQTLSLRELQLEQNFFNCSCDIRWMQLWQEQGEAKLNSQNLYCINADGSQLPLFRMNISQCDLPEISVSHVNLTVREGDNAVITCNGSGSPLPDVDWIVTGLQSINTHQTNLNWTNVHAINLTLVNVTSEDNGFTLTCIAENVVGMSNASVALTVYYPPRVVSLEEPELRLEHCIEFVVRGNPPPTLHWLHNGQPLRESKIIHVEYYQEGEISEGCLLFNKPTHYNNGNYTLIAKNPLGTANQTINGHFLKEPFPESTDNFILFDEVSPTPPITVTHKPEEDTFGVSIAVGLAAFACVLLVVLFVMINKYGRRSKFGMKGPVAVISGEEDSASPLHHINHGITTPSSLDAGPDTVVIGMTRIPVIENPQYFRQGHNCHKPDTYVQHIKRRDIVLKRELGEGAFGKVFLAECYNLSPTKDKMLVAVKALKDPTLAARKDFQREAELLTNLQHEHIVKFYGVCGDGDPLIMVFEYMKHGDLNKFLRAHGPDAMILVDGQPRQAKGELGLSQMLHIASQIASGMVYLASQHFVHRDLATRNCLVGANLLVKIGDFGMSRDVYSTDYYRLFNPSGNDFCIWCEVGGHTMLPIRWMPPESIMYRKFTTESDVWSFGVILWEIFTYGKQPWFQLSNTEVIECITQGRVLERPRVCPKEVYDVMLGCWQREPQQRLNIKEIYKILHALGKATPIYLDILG
Experimental: (§2) Inhibition of protein kinase activity by compounds was carried out on the Radio-tagged HotSpot kinase experimental platform of Reaction Biology Corporation. Fresh reaction solution (20 mM HEPESpH 7.5, 10 mM MgCl2, 1 mM EGTA, 0.02% Brij35, 0.02 mg/ml BSA, 0.1 mM Na3VO4, 2 mM DTT, 1% DMSO) containing corresponding substrates was prepared, cofactor and kinase to be tested were added into the above solution and mixed gently. Echo550 pipetting system was used to add the test compound DMSO solution to each well (the blank control group was added with the corresponding volume of DMSO), then 33P-ATP (with a final specific activity of 0.01 μCi/μL) was added to start the reaction. The reaction solution was incubated at room temperature for 120 minutes.

[6] = biological target: ROS1 (Homo sapiens (Human), UniProt P08922); experiment: Radio-tagged HotSpot kinase assay, ROS1
Chain of ROS1 (P08922 28-2347): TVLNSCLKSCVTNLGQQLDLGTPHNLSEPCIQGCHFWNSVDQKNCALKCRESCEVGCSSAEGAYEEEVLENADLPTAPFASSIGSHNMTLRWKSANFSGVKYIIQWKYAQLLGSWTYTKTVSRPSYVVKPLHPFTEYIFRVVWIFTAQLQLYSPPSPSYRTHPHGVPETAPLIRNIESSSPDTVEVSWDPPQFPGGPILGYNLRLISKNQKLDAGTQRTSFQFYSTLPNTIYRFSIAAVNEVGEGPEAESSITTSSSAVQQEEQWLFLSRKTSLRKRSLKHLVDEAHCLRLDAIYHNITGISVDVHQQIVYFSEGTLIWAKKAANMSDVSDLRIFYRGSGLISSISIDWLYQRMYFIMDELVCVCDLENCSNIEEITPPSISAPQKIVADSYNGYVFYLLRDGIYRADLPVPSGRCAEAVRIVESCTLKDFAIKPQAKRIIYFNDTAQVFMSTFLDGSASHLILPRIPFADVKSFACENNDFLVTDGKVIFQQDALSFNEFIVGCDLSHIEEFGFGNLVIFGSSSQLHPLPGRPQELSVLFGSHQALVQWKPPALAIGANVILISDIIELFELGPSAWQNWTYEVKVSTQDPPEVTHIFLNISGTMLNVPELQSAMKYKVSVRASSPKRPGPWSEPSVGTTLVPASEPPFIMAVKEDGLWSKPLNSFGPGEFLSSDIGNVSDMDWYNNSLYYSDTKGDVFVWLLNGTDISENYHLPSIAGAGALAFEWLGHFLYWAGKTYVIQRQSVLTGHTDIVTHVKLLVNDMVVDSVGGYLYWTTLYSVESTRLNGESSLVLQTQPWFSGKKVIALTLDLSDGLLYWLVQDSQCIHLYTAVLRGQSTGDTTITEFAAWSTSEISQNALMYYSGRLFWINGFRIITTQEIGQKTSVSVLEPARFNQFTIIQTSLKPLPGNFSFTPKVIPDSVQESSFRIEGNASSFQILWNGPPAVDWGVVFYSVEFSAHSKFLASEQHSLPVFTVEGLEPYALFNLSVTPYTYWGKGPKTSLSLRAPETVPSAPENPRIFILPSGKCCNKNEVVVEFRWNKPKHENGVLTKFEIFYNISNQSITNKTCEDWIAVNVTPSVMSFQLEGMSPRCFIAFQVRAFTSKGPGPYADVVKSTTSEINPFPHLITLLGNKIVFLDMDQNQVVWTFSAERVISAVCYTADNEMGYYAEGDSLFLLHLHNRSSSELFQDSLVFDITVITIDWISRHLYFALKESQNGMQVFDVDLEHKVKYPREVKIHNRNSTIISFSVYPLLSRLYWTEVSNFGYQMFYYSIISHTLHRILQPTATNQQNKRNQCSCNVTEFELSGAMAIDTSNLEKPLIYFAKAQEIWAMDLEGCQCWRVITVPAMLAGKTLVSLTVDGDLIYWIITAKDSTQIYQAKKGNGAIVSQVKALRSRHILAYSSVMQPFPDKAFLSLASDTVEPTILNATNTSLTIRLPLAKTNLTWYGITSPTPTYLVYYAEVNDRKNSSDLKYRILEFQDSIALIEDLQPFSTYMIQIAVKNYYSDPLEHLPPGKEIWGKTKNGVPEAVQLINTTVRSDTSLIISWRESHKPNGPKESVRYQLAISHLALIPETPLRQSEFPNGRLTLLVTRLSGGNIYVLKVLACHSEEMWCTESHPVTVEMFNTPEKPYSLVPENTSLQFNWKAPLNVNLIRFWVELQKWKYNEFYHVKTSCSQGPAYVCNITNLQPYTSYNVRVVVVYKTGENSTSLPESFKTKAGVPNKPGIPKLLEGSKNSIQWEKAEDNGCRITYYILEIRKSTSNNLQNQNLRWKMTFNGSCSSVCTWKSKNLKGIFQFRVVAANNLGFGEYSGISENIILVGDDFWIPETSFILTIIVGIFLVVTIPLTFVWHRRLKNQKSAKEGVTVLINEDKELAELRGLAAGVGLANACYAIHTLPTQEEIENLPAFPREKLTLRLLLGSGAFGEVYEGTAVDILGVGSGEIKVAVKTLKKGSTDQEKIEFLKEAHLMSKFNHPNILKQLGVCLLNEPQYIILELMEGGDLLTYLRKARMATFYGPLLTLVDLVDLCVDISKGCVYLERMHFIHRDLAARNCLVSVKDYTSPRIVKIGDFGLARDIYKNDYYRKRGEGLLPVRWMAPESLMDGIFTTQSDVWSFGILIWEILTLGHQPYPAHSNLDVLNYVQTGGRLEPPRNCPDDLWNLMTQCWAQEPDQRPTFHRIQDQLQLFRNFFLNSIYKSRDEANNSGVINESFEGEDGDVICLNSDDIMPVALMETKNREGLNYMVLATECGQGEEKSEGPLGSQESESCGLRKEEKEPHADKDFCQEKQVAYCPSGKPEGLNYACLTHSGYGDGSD
Experimental: as §2

[7] = biological target: TRKA (Homo sapiens (Human), UniProt P04629); experiment: Radio-tagged HotSpot kinase assay, TRKA;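 further: kinase activity measured through incorporation of 33P from labelled ATP into substrate, 120 min at room temperature, relative to a DMSO-only blank control, reported as inhibition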
Chain of TRKA (P04629 33-796): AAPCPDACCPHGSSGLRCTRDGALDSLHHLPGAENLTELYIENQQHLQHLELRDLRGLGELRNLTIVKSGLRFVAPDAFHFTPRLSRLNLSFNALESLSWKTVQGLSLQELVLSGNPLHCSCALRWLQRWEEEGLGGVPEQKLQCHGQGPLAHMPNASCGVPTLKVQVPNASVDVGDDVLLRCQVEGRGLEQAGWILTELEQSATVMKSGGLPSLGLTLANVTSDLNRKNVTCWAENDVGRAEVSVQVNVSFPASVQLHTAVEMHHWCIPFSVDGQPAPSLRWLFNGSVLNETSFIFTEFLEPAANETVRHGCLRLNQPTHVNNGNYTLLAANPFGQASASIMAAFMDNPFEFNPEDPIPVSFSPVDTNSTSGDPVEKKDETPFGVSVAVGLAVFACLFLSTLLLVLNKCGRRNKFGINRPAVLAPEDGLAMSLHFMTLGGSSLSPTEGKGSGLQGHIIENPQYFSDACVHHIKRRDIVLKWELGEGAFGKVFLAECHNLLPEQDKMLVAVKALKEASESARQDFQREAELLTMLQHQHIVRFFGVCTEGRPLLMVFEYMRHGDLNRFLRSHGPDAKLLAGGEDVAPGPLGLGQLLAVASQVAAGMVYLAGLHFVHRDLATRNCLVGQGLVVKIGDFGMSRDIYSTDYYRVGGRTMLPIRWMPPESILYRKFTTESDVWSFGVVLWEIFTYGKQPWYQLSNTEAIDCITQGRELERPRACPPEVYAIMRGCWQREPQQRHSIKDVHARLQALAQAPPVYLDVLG
Experimental: as §2

[8] = biological target: TRKA (G595R) (Homo sapiens (Human), UniProt P04629, G595R); experiment: Radio-tagged HotSpot kinase assay, TRKA (G595R)
Chain of TRKA (G595R) (P04629 33-796 G595R): as the sequence (P04629 33-796) above, with G563R counted along it
Experimental: as §2

[9] = biological target: ROS1 (G2032R) (Homo sapiens (Human), UniProt P08922, G2032R); experiment: Radio-tagged HotSpot kinase assay, ROS1 (G2032R)
Chain of ROS1 (G2032R) (P08922 28-2347 G2032R): as the sequence (P08922 28-2347) above, with G2005R counted along it
Experimental: as §2

[10] = biological target: TRKB (Homo sapiens (Human), UniProt Q16620); experiment: Radio-tagged HotSpot kinase assay, TRKB; assay type: biochemical; details: 33P-ATP, 120 min, room temperature
Chain of TRKB (Q16620 32-822): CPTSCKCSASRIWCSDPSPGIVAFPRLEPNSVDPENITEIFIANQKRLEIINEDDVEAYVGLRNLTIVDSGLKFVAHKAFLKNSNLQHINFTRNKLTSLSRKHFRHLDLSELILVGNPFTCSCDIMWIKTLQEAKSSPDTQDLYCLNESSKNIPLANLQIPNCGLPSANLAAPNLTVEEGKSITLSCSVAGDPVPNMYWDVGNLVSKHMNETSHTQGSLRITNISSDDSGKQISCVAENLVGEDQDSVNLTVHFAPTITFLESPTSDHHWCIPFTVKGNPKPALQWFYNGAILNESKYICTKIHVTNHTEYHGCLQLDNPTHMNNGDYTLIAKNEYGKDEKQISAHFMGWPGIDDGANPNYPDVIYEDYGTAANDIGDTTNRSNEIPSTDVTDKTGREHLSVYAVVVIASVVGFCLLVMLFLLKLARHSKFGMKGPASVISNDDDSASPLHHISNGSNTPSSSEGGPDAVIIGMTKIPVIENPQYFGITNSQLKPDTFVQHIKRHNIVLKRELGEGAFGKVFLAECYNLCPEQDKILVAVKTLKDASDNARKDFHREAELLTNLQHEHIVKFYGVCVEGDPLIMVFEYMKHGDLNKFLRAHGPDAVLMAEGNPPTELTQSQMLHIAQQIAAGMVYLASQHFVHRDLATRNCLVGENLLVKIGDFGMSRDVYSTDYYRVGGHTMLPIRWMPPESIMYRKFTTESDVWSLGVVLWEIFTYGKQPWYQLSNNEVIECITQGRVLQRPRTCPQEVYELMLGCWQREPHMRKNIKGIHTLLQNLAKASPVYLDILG
Experimental: as §2

[11] = biological target: ALK (Homo sapiens (Human), UniProt Q9UM73); experiment: Radio-tagged HotSpot kinase assay, ALK; assay type: biochemical; details: 33P-ATP, 120 min, room temperature
Experimental: as §2

[12] = biological target: TRKA (G677C) (Homo sapiens, UniProt P04629, G667C); experiment: Radio-tagged HotSpot kinase assay, TRKA (G677C); assay type: biochemical; details: 33P-ATP, 120 min, room temperature
Chain of TRKA (G677C) (P04629 33-796 G667C limits assumed): as the sequence (P04629 33-796) above, with G635C counted along it
Experimental: as §2

[13] = read-out: ROS1 (IC50/nM), 33P-ATP, 120 min, room temperature
[14] = read-out: ROS1 (G2032R) (IC50/nM), 33P-ATP, 120 min, room temperature
[15] = read-out: TRKA (IC50/nM), 33P-ATP, 120 min, room temperature
[16] = read-out: TRKA (G595R) (IC50/nM), 33P-ATP, 120 min, room temperature

SMILES	IC50 [1]	IC50 [2]	IC50 [3]	IC50 [4]	IC50 [7]	IC50 [10]	other results
CC(Nc1ccn2ncc(C3=NOC(C)(C)N3)c2n1)c1ccc(F)cc1 (racemic) [Example 25 racemate]	–	–	–	–	50 to 500 nM	–	–
COc1ccc(F)c(Cl)c1[C@@H](C)Nc1ccn2ncc(C3=NOC(C)(C)N3)c2n1 [Example 1]	–	–	–	458 nM	–	–	–
C[C@@H](Nc1ccn2ncc(C3=NOC(C)(C)N3)c2n1)c1cc(F)cc(F)c1 [Example 27]	–	–	–	–	0.5 to 5 nM	0.5 to 5 nM	IC50 [11]: 5 to 50 nM; IC50 [5]: 0.5 to 5 nM; IC50 [6]: 0.5 to 5 nM
C[C@@H](Nc1ccn2ncc(C3=NOC(C)(C)N3)c2n1)c1cc(F)cc(F)c1F [Example 13]	5.2 nM	5.1 nM	45.9 nM	12.5 nM	–	–	–
C[C@@H](Nc1ccn2ncc(C3=NOC(C)(C)N3)c2n1)c1ccccc1Cl [Example 26]	–	–	–	–	0.5 to 5 nM	0.5 to 5 nM	IC50 [11]: 5 to 50 nM; IC50 [5]: 0.5 to 5 nM; IC50 [6]: 0.5 to 5 nM
Cc1nc(-c2cnn3ccc(N[C@H](C)c4cc(F)ccc4O)nc23)no1 [Example 67]	–	–	–	–	5 to 50 nM	0.5 to 5 nM	IC50 [5]: 0.5 to 5 nM; IC50 [6]: 0.5 to 5 nM; IC50 [8]: 5 to 50 nM; IC50 [9]: 5 to 50 nM
C[C@@H](Nc1ccn2ncc(C3=NOC(C)(C)N3)c2n1)c1cccc(F)c1 [Example 31]	–	–	54.4 nM	3.5 nM	–	–	–
COc1ccc(F)cc1[C@@H](C)Nc1ccn2ncc(C3=NOC(C)(c4ccc(F)cc4)N3)c2n1 (some centres unmarked) [Example 47]	–	–	–	–	–	–	IC50 [12]: 50 to 500 nM
C[C@@H](Oc1ccn2ncc(C3=NOC(C)(C)N3)c2n1)c1c(Cl)ccc(F)c1Cl [Example 9]	26.2 nM	100 nM	155 nM	890 nM	–	0.5 to 5 nM	IC50 [11]: 50 to 500 nM; IC50 [12]: 50 to 500 nM
CCCCC1NC(c2cnn3ccc(N[C@H](C)c4cc(F)ccc4O)nc23)=NO1 (some centres unmarked) [Example 69]	–	–	–	–	–	< 0.5 nM	IC50 [5]: < 0.5 nM; IC50 [6, 13]: < 0.5 nM; IC50 [7, 15]: < 0.5 nM; IC50 [8, 16]: < 0.5 nM; IC50 [9, 14]: < 0.5 nM
COc1ccc(F)cc1[C@@H](C)Nc1ccn2ncc(C3=NOC(C)(c4ccccn4)N3)c2n1 (some centres unmarked) [Example 48]	–	–	–	–	–	–	IC50 [12]: 50 to 500 nM
C[C@H](Nc1ccn2ncc(C3=NOC(C)(C)N3)c2n1)c1cc(F)ccc1Br [Example 24]	–	–	–	–	–	–	IC50 [7, 15]: > 500 nM
C[C@@H](Nc1ccn2ncc(C3=NCC(C)(C)N3)c2n1)c1cc(F)ccc1F [Example 65]	–	–	–	–	0.5 to 5 nM	0.5 to 5 nM	IC50 [5]: < 0.5 nM; IC50 [6, 13]: < 0.5 nM; IC50 [8]: 0.5 to 5 nM; IC50 [9, 14]: < 0.5 nM
COc1ccc(F)cc1[C@@H](C)Oc1ccn2ncc(C3=NOC(C)(C)N3)c2n1 [Example 71]	32.2 nM	76.9 nM	185 nM	110 nM	0.5 to 5 nM	0.5 to 5 nM	IC50 [5]: 0.5 to 5 nM; IC50 [6]: 0.5 to 5 nM; IC50 [8]: 0.5 to 5 nM; IC50 [9]: 0.5 to 5 nM
COc1ccc(F)cc1[C@@H](C)Nc1nc2c(C3=NOC(C)(C)N3)cnn2cc1F [Example 20]	–	–	43.6 nM	–	–	–	–
COc1ccc(F)cc1[C@@H](C)Nc1ccn2ncc(C3=NOC4(CCCCC4)N3)c2n1 [Example 45]	–	–	–	–	–	–	IC50 [12]: 5 to 50 nM
COc1c(F)ccc(F)c1[C@@H](C)Nc1ccn2ncc(C3=NOC(C)(C)N3)c2n1 [Example 2]	–	–	–	113 nM	–	–	–
C[C@@H](Nc1ccn2ncc(C3=NOC(C)(C)N3)c2n1)c1cc(F)ccc1C(F)(F)F [Example 33]	15.7 nM	25.9 nM	120 nM	386 nM	–	–	–
COc1ccc(F)cc1[C@@H](C)Nc1ccn2ncc(C3=NOC4(CCOCC4)N3)c2n1 [Example 46]	–	–	–	–	–	–	IC50 [12]: 5 to 50 nM
COc1c(F)cc(F)cc1[C@@H](C)Nc1ccn2ncc(C3=NOC(C)(C)N3)c2n1 [Example 30]	2.2 nM	5.8 nM	16.3 nM	7 nM	–	–	–
C[C@@H](Nc1ccn2ncc(C3=NOC(C)(C)N3)c2n1)c1cc(F)cc2ccccc12 [Example 53]	8.4 nM	18.2 nM	81.1 nM	30.1 nM	–	–	–
C[C@@H](Nc1ccn2ncc(C3=NOC(C)(C)N3)c2n1)c1cc(F)cnc1OCC(F)(F)F [Example 15]	4.9 nM	3.8 nM	34.8 nM	8.6 nM	–	–	–
[2H]C([2H])([2H])Oc1ccc(F)cc1[C@@H](C)Nc1nc2c(C3=NOC(C)(C)N3)cnn2cc1F [Example 6]	6 nM	2 nM	43.7 nM	2.8 nM	–	–	–
C[C@@H](Nc1ccn2ncc(C3=NOC(C)(C)N3)c2n1)c1ccc(F)cc1 [Example 25]	–	–	–	–	50 to 500 nM	–	–
COc1cc(F)c(F)cc1[C@@H](C)Nc1ccn2ncc(C3=NOC(C)(C)N3)c2n1 [Example 32]	52.1 nM	45.8 nM	–	161 nM	–	–	–
C[C@H](Nc1ccn2ncc(C3=NOC(C)(C)N3)c2n1)c1cc(F)cc2ccccc12 [Example 54]	–	–	–	–	0.5 to 5 nM	0.5 to 5 nM	IC50 [5]: < 0.5 nM; IC50 [6, 13]: < 0.5 nM; IC50 [8]: 0.5 to 5 nM; IC50 [9, 14]: < 0.5 nM

Now from value to compound, other results behind:

IC50 [1]	IC50 [2]	IC50 [3]	IC50 [4]	IC50 [7]	IC50 [10]	SMILES	other results
2.8 nM	2.1 nM	10.3 nM	3.3 nM	–	–	C[C@@H](Nc1ccn2ncc(C3=NOC(C)(C)N3)c2n1)c1cc(F)ccc1OCC(F)(F)F [Example 3]	–
6.6 nM	26.7 nM	47.9 nM	25.4 nM	0.5 to 5 nM	< 0.5 nM	COC(=O)N1CCC2(CC1)NC(c1cnn3ccc(N[C@H](C)c4cc(F)ccc4OC)nc13)=NO2 [Example 55]	IC50 [5]: < 0.5 nM; IC50 [6, 13]: < 0.5 nM; IC50 [8]: 0.5 to 5 nM; IC50 [9, 14]: < 0.5 nM
–	–	–	–	–	< 0.5 nM	C[C@@H](Nc1ccn2ncc(C3=NOC(C)(C)N3)c2n1)c1cc(F)ccc1O [Example 68]	IC50 [5]: < 0.5 nM; IC50 [6, 13]: < 0.5 nM; IC50 [7, 15]: < 0.5 nM; IC50 [8, 16]: < 0.5 nM; IC50 [9, 14]: < 0.5 nM
–	–	–	–	50 to 500 nM	–	COc1ccc(F)cc1[C@H](C)Nc1ccn2ncc(C3=NOC(C)(C)N3)c2n1 [Example 41]	–
–	–	–	–	50 to 500 nM	–	Cc1ccc(F)cc1[C@H](C)Nc1ccn2ncc(C3=NOC(C)(C)N3)c2n1 [Example 43]	–
2.8 nM	2.3 nM	23.5 nM	5.1 nM	–	–	C[C@@H](Nc1ccn2ncc(C3=NOC(C)(C)N3)c2n1)c1cc(F)ccc1OC(F)(F)F [Example 17]	–
–	–	140 nM	–	–	–	CCCC1(C)NC(c2cnn3ccc(N[C@H](C)c4cc(F)ccc4OC)nc23)=NO1 (some centres unmarked) [Example 19]	–
6.9 nM	14.2 nM	59.2 nM	13.9 nM	–	–	COc1ccc(F)cc1[C@@H](C)Nc1ccn2ncc(C3=NOC4(CCCC4)N3)c2n1 [Example 44]	IC50 [12]: 0.5 to 5 nM
–	–	–	–	0.5 to 5 nM	0.5 to 5 nM	Cc1ccc(F)cc1[C@@H](C)Nc1ccn2ncc(C3=NOC(C)(C)N3)c2n1 [Example 42]	IC50 [11]: 5 to 50 nM; IC50 [5]: 0.5 to 5 nM; IC50 [6]: 0.5 to 5 nM
–	–	–	387 nM	–	–	COc1ccc(OC)c([C@@H](C)Nc2ccn3ncc(C4=NOC(C)(C)N4)c3n2)c1 [Example 29]	–
–	–	–	–	0.5 to 5 nM	0.5 to 5 nM	CCOCC1(C)NC(c2cnn3ccc(N[C@H](C)c4cc(F)ccc4O)nc23)=NO1 (some centres unmarked) [Example 66]	IC50 [5]: < 0.5 nM; IC50 [6, 13]: < 0.5 nM; IC50 [8]: 0.5 to 5 nM; IC50 [9, 14]: < 0.5 nM
